In ChEMBL document CHEMBL5390322, “Discovery of 5-Azaquinoxaline Derivatives as Potent and Orally Bioavailable Allosteric SHP2 Inhibitors” (ACS Med Chem Lett, 2023):
pIC50: −log10 of the molar value. In brackets after ≈: the same amount, converted by molar mass.

Tests used:
[1] = biological target: T1, Tyrosine-protein phosphatase non-receptor type 11 (Homo sapiens, UniProt Q06124); assay: Allosteric inhibition of recombinant full length 6His-tagged SHP2 (2 to 527 residues) (unknown origin) expressed in Escherichia coli using DiFMUP as substrate incubated for 15 mins by microplate reader analysis
T1 sequence (Q06124 whole entry): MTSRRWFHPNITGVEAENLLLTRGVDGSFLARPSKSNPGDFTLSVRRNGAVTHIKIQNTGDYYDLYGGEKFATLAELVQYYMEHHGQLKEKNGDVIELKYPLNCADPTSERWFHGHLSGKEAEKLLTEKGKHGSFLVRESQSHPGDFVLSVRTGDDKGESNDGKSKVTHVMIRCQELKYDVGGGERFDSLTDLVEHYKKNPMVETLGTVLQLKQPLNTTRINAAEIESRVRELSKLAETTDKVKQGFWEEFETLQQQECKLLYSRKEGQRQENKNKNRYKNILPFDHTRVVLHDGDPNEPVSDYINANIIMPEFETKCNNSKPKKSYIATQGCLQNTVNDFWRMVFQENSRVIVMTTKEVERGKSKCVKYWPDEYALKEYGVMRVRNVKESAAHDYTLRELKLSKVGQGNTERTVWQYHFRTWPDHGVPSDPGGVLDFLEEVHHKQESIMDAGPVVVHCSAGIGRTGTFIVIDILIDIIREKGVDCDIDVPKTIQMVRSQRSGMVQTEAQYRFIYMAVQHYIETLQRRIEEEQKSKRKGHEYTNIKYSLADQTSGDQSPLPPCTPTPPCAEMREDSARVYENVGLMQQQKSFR

[2] = Solubility of the compound in FaSSIF at 1 mg/ml incubated for 24 hrs by LC-MS/MS analysis; assay type: physicochemical
[3] = biological target: T2, Mitogen-activated protein kinase; ERK1/ERK2 (Homo sapiens, UniProt P27361+P28482); assay: Inhibition of ERK1/2 phosphorylation at Thr202/Tyr204 residues in human KYSE520 cells incubated for 1 hrs by Western blot analysis; assay type: cell-based
T2 sequence (P27361 whole entry, looked up): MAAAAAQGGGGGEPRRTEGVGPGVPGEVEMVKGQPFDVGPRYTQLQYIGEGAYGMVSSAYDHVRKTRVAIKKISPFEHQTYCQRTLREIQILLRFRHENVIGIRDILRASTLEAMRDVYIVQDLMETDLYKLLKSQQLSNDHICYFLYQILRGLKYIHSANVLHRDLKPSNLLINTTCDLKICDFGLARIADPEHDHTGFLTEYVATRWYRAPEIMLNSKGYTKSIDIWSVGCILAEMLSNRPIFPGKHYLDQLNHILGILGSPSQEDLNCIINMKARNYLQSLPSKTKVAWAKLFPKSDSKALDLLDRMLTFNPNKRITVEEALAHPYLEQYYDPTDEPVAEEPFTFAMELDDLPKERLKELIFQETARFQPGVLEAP
T2 sequence (P28482 whole entry, looked up): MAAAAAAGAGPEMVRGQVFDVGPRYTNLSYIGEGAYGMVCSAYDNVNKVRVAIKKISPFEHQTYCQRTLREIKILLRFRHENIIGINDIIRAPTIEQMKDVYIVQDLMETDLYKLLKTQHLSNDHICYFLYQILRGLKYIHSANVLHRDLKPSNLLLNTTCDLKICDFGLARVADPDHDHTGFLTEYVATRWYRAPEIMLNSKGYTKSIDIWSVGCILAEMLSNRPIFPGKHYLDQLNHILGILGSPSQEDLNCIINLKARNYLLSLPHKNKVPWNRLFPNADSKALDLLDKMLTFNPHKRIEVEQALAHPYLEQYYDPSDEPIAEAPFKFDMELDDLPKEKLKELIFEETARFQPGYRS

[4] = Metabolic stability in human hepatocyte assessed as intrinsic clearance incubated for 1 to 2 hrs by LC-MS analysis; assay type: ADME, cell-based; settings: hepatocytes, time 1-2 hrs, read-out: CLH
[5] = Permeability of compound from apical to basolateral side in LLC-PK1 cells incubated for 2 hrs by LC-MS/MS analysis; assay type: ADME, cell-based, Sus scrofa; settings: pig, read-out: permeability
[6] = Metabolic stability in mouse liver microsome assessed as intrinsic clearance at […] preincubated for 5 mins followed by NADPH addition and measured after 20 mins by LC-MS analysis; assay type: ADME; settings: liver microsomes, dose 2.5 µM, time 25 min, read-out: CLH
[7] = Metabolic stability in mouse hepatocyte assessed as intrinsic clearance incubated for 1 to 2 hrs by LC-MS analysis; assay type: ADME, cell-based; settings: hepatocytes, time 1-2 hrs, read-out: CLH
[8] = Metabolic stability in human liver microsome assessed as intrinsic clearance at […] preincubated for 5 mins followed by NADPH addition and measured after 20 mins by LC-MS analysis; assay type: ADME; settings: liver microsomes, dose 2.5 µM, time 25 min, read-out: CLH
[9] = biological target: T2, Mitogen-activated protein kinase; ERK1/ERK2; settings: KYSE520, time 1.0 hrs
[10] = Tmax in CD-1 mouse at 10 mg/kg, po measured upto 24 hrs by LC-MS/MS method; assay type: ADME, organism-based; settings: in vivo
[11] = biological target: T2, Mitogen-activated protein kinase; ERK1/ERK2; settings: KYSE520, time 1.0 hrs; remark: listed apart in the source
[12] = Oral bioavailability in CD-1 mouse at 10 mg/kg measured upto 24 hrs by LC-MS/MS method; assay type: ADME, organism-based; settings: in vivo
[13] = Cmax in CD-1 mouse at 10 mg/kg, po measured upto 24 hrs by LC-MS/MS method; assay type: ADME, organism-based; design: dose 10 mg/kg, time < 24 hrs, route po; settings: in vivo
[14] = Half life in CD-1 mouse at 1 mg/kg, iv measured upto 8 hrs by LC-MS/MS method; assay type: ADME, organism-based; settings: in vivo
[15] = AUC(0 to infinity) in CD-1 mouse at 10 mg/kg, po measured upto 24 hrs by LC-MS/MS method; assay type: ADME, organism-based; design: time < 24 hrs, dose 10 mg/kg, route po; settings: in vivo
[16] = Volume of distribution at steady state in CD-1 mouse at 1 mg/kg, iv measured upto 8 hrs by LC-MS/MS method; assay type: ADME, organism-based; settings: in vivo, read-out: Vdss
MIA PaCa-2 [17] = assay: Antitumor activity against human MIA PaCa-2 cells harboring KRAS G12C mutant xenografted in athymic nude Foxn1nu mouse assessed as tumor growth inhibition at 100 mg/kg,po administrated for 28 days and measured every 3 to 4 days relative to control; assay type: functional; settings: time 28 day
[18] = Clearance in CD-1 mouse at 1 mg/kg, iv measured upto 8 hrs by LC-MS/MS method; assay type: ADME, organism-based; settings: in vivo
[19] = Toxicity in athymic nude Foxn1nu mouse xenografted with human MIA PaCa-2 cells harboring KRAS G12C mutant assessed as body weight loss at 30 to 100 mg/kg,po administrated for 28 days and measured every 3 to 4 days relative to control; assay type: organism-based; settings: in vivo, 672 h, dose 30-100 mg/kg, time 28 day
MIA PaCa-2 [20] = assay: Antitumor activity against human MIA PaCa-2 cells harboring KRAS G12C mutant xenografted in athymic nude Foxn1nu mouse assessed as tumor growth inhibition at 30 mg/kg,po administrated for 28 days and measured every 3 to 4 days relative to control; assay type: functional; settings: time 28 day
[21] = AUClast in CD-1 mouse at 10 mg/kg, po measured upto 24 hrs by LC-MS/MS method; assay type: ADME, organism-based; design: time < 24 hrs, dose 10 mg/kg, route po; settings: in vivo

| SMILES | pIC50 [1] | solubility at 24 h [2] | IC50 [3] | CLint scaled at 10000 µM [4] | Papp A→B at 2 h [5] | CLint scaled at […] [6] | CLint scaled [7] | CLint scaled at […] [8] | also measured |
| --- | --- | --- | --- | --- | --- | --- | --- | --- | --- |
| Nc1nccc(Sc2ccc3nc(N4CCC5(CC4)Cc4cc(Cl)ccc4[C@H]5N)cnc3n2)c1Cl | 7.46 | 24 µg/mL (≈ 45.8 µM) | 78 nM | – | – | – | – | – | – |
| Nc1nccc(Sc2ccc3nc(N4CCC5(CC4)Cc4ccccc4[C@H]5N)cnc3n2)c1Cl | – | 60 µg/mL (≈ 122 µM) | 8 nM | 10 mL/min/kg | 1 ×10⁻⁶ cm/s | 19 mL/min/kg | 34 mL/min/kg | 8 mL/min/kg | – |
| Nc1nccc(Sc2ccc3nc(N4[C@H]5CC[C@H]4CC(N)C5)cnc3n2)c1Cl (stereo partly drawn) | – | 1000 µg/mL (≈ 2420 µM) | 28 nM | 2 mL/min/kg | 3 ×10⁻⁶ cm/s | 18 mL/min/kg | 17 mL/min/kg | 3 mL/min/kg | – |
| Nc1nccc(Sc2ccc3nc(N4CCC5(CC4)Cc4ncccc4[C@H]5N)cnc3n2)c1Cl | – | 271 µg/mL (≈ 552 µM) | 5 nM | 11 mL/min/kg | 11 ×10⁻⁶ cm/s | 35 mL/min/kg | 28 mL/min/kg | 9 mL/min/kg | fIC50 [9]: 0.06 µg/mL; fIC90 [9]: 0.535 µg/mL; Tmax [10]: 4 h; fIC50 [11]: 0.06 µg/mL; fIC90 [11]: 0.535 µg/mL; bioavailability [12]: 66.5%; Cmax [13]: 649 ng/mL; half-life [14]: 1.44 h; AUC(0-inf) [15]: 5780 ng·h/mL; Vd [16]: 1.74 L/kg; TGI (MIA PaCa-2 [17]): 75%; clearance [18]: 19.2 mL/min/kg; Activity [19]: < 5%; TGI (MIA PaCa-2 [20]): 38% |
| Nc1nccc(Sc2ccc3nc(N4CCC[C@H](N)CC4)cnc3n2)c1Cl | 6.99 | – | 84 nM | 3 mL/min/kg | 1 ×10⁻⁶ cm/s | 19 mL/min/kg | 8 mL/min/kg | 4 mL/min/kg | – |
| COc1nccc(Sc2ccc3nc(N4CCC(C)(N)CC4)cnc3n2)c1Cl | 6.45 | – | 660 nM | 2 mL/min/kg | 12 ×10⁻⁶ cm/s | 20 mL/min/kg | 7 mL/min/kg | 6 mL/min/kg | – |
| CC1(N)CCN(c2cnc3nc(-c4cccc(F)c4Cl)ccc3n2)CC1 | 6.46 | – | 1184 nM | – | 19 ×10⁻⁶ cm/s | – | – | – | – |
| COc1ccc2c(c1)[C@@H](N)C1(CCN(c3cnc4nc(Sc5ccnc(N)c5Cl)ccc4n3)CC1)C2 | 7.33 | – | 29 nM | 11 mL/min/kg | – | 21 mL/min/kg | 33 mL/min/kg | 6 mL/min/kg | – |
| CC1(CN)CCN(c2cnc3nc(Sc4ccnc(N)c4Cl)ccc3n2)CC1 | – | 909 µg/mL (≈ 2190 µM) | 68 nM | 2 mL/min/kg | 10 ×10⁻⁶ cm/s | 14 mL/min/kg | 16 mL/min/kg | 5 mL/min/kg | – |
| CC1(N)CCN(c2ncc(Sc3cccc(Cl)c3Cl)n3nccc23)CC1 | 6.68 | – | 2785 nM | – | – | – | – | – | – |
| CC1(N)CCN(c2ccnc3c(Sc4cccc(Cl)c4Cl)cnn23)CC1 | 6.28 | – | > 20000 nM | – | – | – | – | – | – |
| CC1(N)CCN(c2ccc(Sc3cccc(Cl)c3Cl)n3nccc23)CC1 | 5.43 | – | > 20000 nM | – | – | – | – | – | – |
| CC1(N)CCN(c2cnc3nc(Sc4cccc(Cl)c4Cl)ccc3n2)CC1 | 7.33 | – | 1068 nM | – | – | – | – | – | – |
| CC1(N)CCN(c2cnc3c(cnn3-c3cccc(Cl)c3Cl)n2)CC1 | 5.71 | – | 1951 nM | – | – | – | – | – | – |
| CNC1(C)CCN(c2cnc3nc(Sc4ccnc(N)c4Cl)ccc3n2)CC1 | – | 1000 µg/mL (≈ 2400 µM) | 202 nM | 5 mL/min/kg | 12 ×10⁻⁶ cm/s | 20 mL/min/kg | 16 mL/min/kg | 3 mL/min/kg | – |
| COc1cccc(Sc2ccc3nc(N4CCC(C)(N)CC4)cnc3n2)c1Cl | 6.98 | – | 786 nM | 9 mL/min/kg | – | 51 mL/min/kg | 45 mL/min/kg | 9 mL/min/kg | – |
| CC1(N)CCN(c2cnc3c(Sc4cccc(Cl)c4Cl)cnn3c2)CC1 | 6.20 | – | > 20000 nM | – | – | – | – | – | – |
| C[C@@H]1OCC2(CCN(c3cnc4nc(Sc5ccnc(N)c5Cl)ccc4n3)CC2)[C@@H]1N | 7.14 | 894 µg/mL (≈ 1950 µM) | 58 nM | 5 mL/min/kg | 13 ×10⁻⁶ cm/s | 24 mL/min/kg | 16 mL/min/kg | 3 mL/min/kg | fIC50 [9]: 0.244 µg/mL; fIC90 [9]: 2.2 µg/mL; AUC(0-t) at 24 h [21]: 2820 ng·h/mL; Tmax [10]: 2 h; fIC50 [11]: 0.244 µg/mL; fIC90 [11]: 2.2 µg/mL; bioavailability [12]: 58.1%; Cmax [13]: 533 ng/mL; half-life [14]: 1.48 h; Vd [16]: 3.46 L/kg; clearance [18]: 34.3 mL/min/kg |
| CC1(N)CCN(c2cnc3nc(-c4cccc5ccccc45)ccc3n2)CC1 | – | – | 510 nM | 2 mL/min/kg | 13 ×10⁻⁶ cm/s | 22 mL/min/kg | 8 mL/min/kg | 3 mL/min/kg | – |
